Experimental data published in US20050038112A1, “Simplified sarcondictyn derivatives as anti-tumor agents” (priority 2001, published 2005).
Like-named read-outs stand apart in the source and are kept apart here.

Tests used:
A2780 cells = assay: Cytotoxicity (SRB colorimetric assay) on A2780 cells; format: cell-based; settings: 72 h incubation, concentration inhibiting cell proliferation by 50%
Experimental: (§1) A2780 cells (2000/well) were seeded in multiwell plates (96 wells) in the presence of 200 μl of the complete medium RPMI 1640+10% FCS. After 24 h, the cells were treated with the compounds: the compounds' solution (200×) was prepared in DMSO 100% and 1 μl/well was added. 5 scalar concentrations for each compound were tested in four replicates. The cells were incubated at 37° C., 5% CO2 for 72 h.
(§2) Colorimetric assay (SRB: sulforhodamine B): cell cultures were fixed with trichloroacetic acid, stained with 0.4% SRB dissolved in 1% acetic acid. Unbound dye was removed by four washes with 1% acetic acid and protein-bound dye was extracted with 10 mM Tris base for determination of optical density in a 96-well microtiter plate reader. IC50 and IC90 (concentration inhibiting cell proliferation by 50 or 90%) were determined by data analysis in the Microsoft Excel 97 program.

[1] = tested on: Human colon carcinoma HCT116 cells; assay: Cytotoxicity on HCT116 tumor cell line; format: cell-based
Pig brain tubulin = target: T1, Pig brain tubulin (Sus scrofa, UniProt P02554); assay: Microtubule assembly and disassembly assay (tubulin polymerizing activity); format: biochemical; settings: 0.5 mg/ml tubulin, 37° C., turbidity at 340 nm; for EC50: effective dose that induces 50% tubulin polymerisation, read-out: ED50 (the source's name); for ED90: effective dose that induces 90% tubulin polymerisation
T1 construct: Pig brain tubulin was prepared by two cycles of assembly and disassembly; from tissue; host or cells: pig brain
Experimental: Pig brain tubulin was prepared by two cycles of assembly and disassembly and it was stored in liquid nitrogen in Microtubule Assembly Buffer (MAB: 0.1 M MES, 2.5 mM EGTA, 0.5 mM MgSO4, 0.1 mM EDTA, 0.1 mM DTT pH 6.4). Assembly was monitored by the method of Gaskin et al. (Gaskin F, Cantor C R, Shelanski M L, 1974,: Turbidimetric studies of the in vitro assembly and disassembly of porcine neurotubules. J. Mol. Biol. 89: 737-758). The cuvette (1 cm path) containing 0.5 mg/ml tubulin and 1 mM GTP was shifted to 37° C. and continuous turbidity measurements were made at 340 nm on a spectrophotometer equipped with an automatic recorder and a thermostatically regulated sample chamber. After 30 min CaCl2 (5 mM) was added and disassembly was monitored for 10 mm as decreased turbidity. Scalar doses of test compounds were monitored at regular intervals of 15 min.
(ED50 and ED90) was calculated on this curve.

[2] = tested on: Human colon carcinoma HT29 cells; assay: Cytotoxicity on HT29 tumor cell line; format: cell-based
Experimental: as §1, §2
Human colon carcinoma HT29 cells were also used to study the cytotoxicity of the compounds of the present invention.

T1 sequence (P02554 whole entry): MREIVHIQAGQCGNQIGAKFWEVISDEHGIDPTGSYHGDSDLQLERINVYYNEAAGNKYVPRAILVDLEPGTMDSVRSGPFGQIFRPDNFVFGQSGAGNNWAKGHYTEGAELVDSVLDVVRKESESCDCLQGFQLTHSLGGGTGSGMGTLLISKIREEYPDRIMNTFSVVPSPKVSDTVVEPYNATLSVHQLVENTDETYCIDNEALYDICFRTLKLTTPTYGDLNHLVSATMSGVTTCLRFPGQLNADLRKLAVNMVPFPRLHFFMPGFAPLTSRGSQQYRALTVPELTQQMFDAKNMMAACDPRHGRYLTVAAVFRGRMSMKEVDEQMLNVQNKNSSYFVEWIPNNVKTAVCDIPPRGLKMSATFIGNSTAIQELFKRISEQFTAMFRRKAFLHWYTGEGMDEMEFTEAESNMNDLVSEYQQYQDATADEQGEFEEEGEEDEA
T1 sequence (P02550 whole entry partner): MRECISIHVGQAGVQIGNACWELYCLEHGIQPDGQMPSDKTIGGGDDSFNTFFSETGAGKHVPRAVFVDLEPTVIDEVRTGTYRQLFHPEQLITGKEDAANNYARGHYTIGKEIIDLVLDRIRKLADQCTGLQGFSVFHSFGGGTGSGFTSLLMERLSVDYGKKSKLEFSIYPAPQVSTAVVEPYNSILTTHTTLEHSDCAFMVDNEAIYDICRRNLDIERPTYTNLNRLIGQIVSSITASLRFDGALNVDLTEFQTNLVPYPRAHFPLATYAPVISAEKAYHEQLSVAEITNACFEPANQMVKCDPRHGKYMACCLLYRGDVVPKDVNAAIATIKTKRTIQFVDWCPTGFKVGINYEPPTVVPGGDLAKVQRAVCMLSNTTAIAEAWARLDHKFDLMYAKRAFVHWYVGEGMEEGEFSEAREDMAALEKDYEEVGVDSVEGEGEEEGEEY

| Structure (SMILES) | IC50 (A2780 cells; Homo sapiens) [µM] | IC50 ([1]; Homo sapiens, HCT-116) [µM] | EC50 (Pig brain tubulin) [µM] | ED90 (Pig brain tubulin) [µM] | IC50 ([2]; Homo sapiens, HT-29) [µM] | IC50 (A2780 cells) [µM] | IC50 [1] [µM] | IC50 [2] [µM] |
| --- | --- | --- | --- | --- | --- | --- | --- | --- |
| CC(=O)O[C@@H]1C/C=C\C[C@@H](OC(=O)/C=C/c2cn(C)cn2)C[C@H]2C(C)=CC[C@H](C(C)C)[C@H]2C1 [Example 12, 3-(1-Methyl-1H-imidazol-4-yl)-acrylic acid 11-acetoxy-1-isopropyl-4-methyl-1,2,4a,5,6,7,10,11,12,12a-decahydro-benzocyclodecen-6-yl ester] | 4 | 12 | 2 | 10.0 | – | – | – | – |
| CC1=CC[C@H](C(C)C)[C@H]2CC(=O)C/C=C\C[C@@H](OC(=O)/C=C/c3cn(C)cn3)C[C@@H]12 [Example 16, (E)-3-(1-Methyl-1H-imidazol-4-yl)-acrylic acid [(1R,4aR,6R,12aR)-1-isopropyl-4-methyl-11-oxo-1,2,4a,5,6,7,10,11,12,12a-decahydro-benzocyclodecen-6-enyl]ester] | 40 | 35 to 60 | 0.2 | 1.2 | 30 | – | – | – |
| C=C1C/C=C\C[C@@H](OC(=O)/C=C/c2cn(C)cn2)C[C@H]2C(C)=CC[C@H](C(C)C)[C@H]2C1 [Example 19] | 4 | 5 | 5 | 16.0 | 6 | – | – | – |
| CO[C@H]1C=CC[C@@H](OC(=O)/C=C/c2cn(C)cn2)C[C@H]2C(C)=CC[C@H](C(C)C)[C@H]2C[C@@H]1OC(=O)C(C)(C)C [Example 27, (E)-3-(1-Methyl-1H-imidazol-4-yl)-acrylic acid [(1R,4aR,6R,10S,11S,12aR)-11-(2,2-dimethyl-propionyloxy)-1-isopropyl-10-methoxy-4-methyl-1,2,4a,5,6,7,10,11,12,12a-decahydro-benzocyclodecen-6-yl}ester] | < 5 | 10 to 25 | 3 | – | 7 | – | – | – |
| CC(=O)O[C@H]1C=CC[C@@H](OC(=O)/C=C/c2cn(C)cn2)C[C@H]2C(C)=CC[C@H](C(C)C)[C@H]2C[C@@H]1OC(=O)C(C)(C)C [Example 30, (E)-3-(1-Methyl-1H-imidazol-4-yl)-acrylic acid [(1R,4aR,6R,10S,11S,12aR)-10-acetoxy-11-(2,2-dimethyl-propionyloxy)-1-isopropyl-4-methyl-1,2,4a5,6,7,10,11,12,12a-decahydro-benzocyclodecen-6-yl]ester] | – | – | 1 | 1.7 | – | – | – | – |
| CC1=CC[C@H](C(C)C)[C@H]2C[C@H](OC(=O)C(C)(C)C)[C@@H](O)C=CC[C@@H](OC(=O)C=Cc3cn(C)cn3)C[C@@H]12 [Example 34, 3-(1-Methyl-1H-imidazol-4-yl)-acrylic acid [(1R,4aR,6R,10S,10S,12aR)-11-(2,2-dimethyl-propionyloxy)-10-hydroxy-1-isopropyl-4-methyl-1,2,4a,5,6,7,10,11,12,12a-decahydro-benzocyclodecen-6-yl}ester] | – | – | 1 | 1.8 | – | 4 | 4 | 5 |
